According to patent US20250339812A1, “ELECTROCHEMICAL DIRECT AIR CAPTURE OF CARBON DIOXIDE USING REVERSIBLE REDOX-ACTIVE MATERIAL” (Massachusetts Institute of Technology, priority 2022, published 2025):
Like-named read-outs stand apart in the source and are kept apart here.

Experiments:
[1] = pKa of the NR/NRH equilibrium; assay type: physicochemical
Source text: After basification, a carbon dioxide rich gas stream was introduced to saturate and consequently acidify the solution.

[2] = Cyclic voltammetry redox durability of NR (100 cycles); conditions: after 100 cyclic voltammetry cycles
Source text: The electrochemistry of the NR aqueous solution was examined by CV at various pH levels between 6 and 12 (FIG. 2A).

[3] = for peak intensity degradation: nitrogen control
Source text: FIG. 5C is a UV-vis spectra for the oxygen sensitivity test.
FIG. 5D is a UV-vis spectra for the control experiment under nitrogen.
FIG. 5E is a UV-vis spectra for the stability test under carbon dioxide.
FIG. 5F is a UV-vis spectra for the stability test under air.
The factors contributing to the 455 nm peak degradation were examined, including decomposition, reoxidation, precipitation, and polymerization.
A third set of UV-vis absorption measurements […], this time on solutions contacted with carbon dioxide, was carried out. […] The final set of UV-vis absorption experiments in FIG. 5F was carried out using solutions bubbled with ambient air.

Row | SMILES | pKa [1] | decay in the peak current [2] | decomposition, reoxidation or polymerization products by NMR studies ([3]; NRH2 solutions) | sensitivity to oxygen ([3]; UV-vis absorption spectroscopy, 50 mM NRH2 in 1 M NA and 0.5 M KCl in water) | intensities of the 455 nm peak ([3]; bubbled with ambient air, 30 min and 2 h contact) | degradation of peak intensity at 455 nm ([3]; contacted with carbon dioxide, after a day) | peak intensity at 455 nm ([3]; contacting pure oxygen, 2 h) | peak intensity degradation ([3]; after 24 h) | peak intensity degradation ([3]; after a week) | peak intensity of NRH2 (455 nm) lowered by ([3]; oxygen atmosphere, a day) | peak intensity of NRH2 (455 nm) lowered by ([3]; sealed under oxygen atmosphere after 24 h bubbling, a week)
1 | Cc1cc2nc3ccc(N(C)C)cc3nc2cc1N.Cl [NR, neutral red] | 6.8 | no significant decay | – | – | – | – | – | – | – | – | –
2 | Cc1cc2c(cc1N)Nc1cc(N(C)C)ccc1N2 [NRH2, leuco-neutral red] | – | – | No major decomposition, reoxidation, or polymerization products | insensitive to oxygen | the same | no significant degradation | maintained | 33% | 53% | 42% | 52%
